Measured values from patent US20090220528A1, “Stimulation of Toll-Like Receptors on T Cells” (THE TRUSTEES OF THE UNIVERISTY OF PENNSYLVANIA CNETER FOR …, priority 2005, published 2009).

Experiments:
Type in all cases: cell-based, mouse
activated CD4+ T cells [1] = test: Effect of signaling inhibitors on TLR ligand-mediated survival; settings: for effect on poly(I:C)- or CpG DNA-enhanced activated CD4+ T cell survival: dose dependent (FIG. 4A)
Method: TLR ligands used in all experiments were dissolved in PBS except for PGN, which was solubilized in PBS with 0.02% ethanol. SB203580, U0126, NEMO-binding domain peptide (NBD), and NBD-C were all dissolved in DMSO and purchased from Calbiochem (La Jolla, Calif.).
Therefore, the next set of experiments were designed to assess whether MAPK p38 or ERK 1/2 activation is necessary for TLR ligand-mediated survival in activated CD4^+ T cells. The ERK1/2 activation inhibitor U0126 or the MAPK p38 inhibitor SB203580 was added to TLR ligand-treated activated CD4^+ T cells and viability was assessed.

activated CD4+ T cells [2] = test: Survival of activated CD4+ T cells treated with TLR ligands (7-AAD/annexin exclusion)
Method: All CD4^+ T cell activation was conducted in complete culture medium composed of RPMI 1640 (Life Technologies, Grand Island, N.Y.), 1.5 μM 2-ME (Sigma-Aldrich, St. Louis, Mo.), 50 μg/ml gentamicin (Life Technologies), and 10% FCS (Mediatech, Washington, D.C.) at 37° C. in 5% CO2. Purified CD4^+ T cells from either BALB/c, MyD88^−/−, or MyD88^+/+ wild-type control littermates were activated on 24-well plates (Costar, Cambridge, Mass.) coated with 1.0 μg/ml CD3ε monoclonal antibody (2C11; BD Biosciences) and 1.0 μg/ml CD28 monoclonal antibody (37.51; BD Biosciences) for 16 hours. In experiments with DO11.10 mice, 1 μg/ml of pOVA, a peptide derived from chicken albumin amino acid residues […] was added to 2×10^6/ml erythrocyte-depleted splenocyte and lymph node cell pools for 16 hours. Following pOVA-induced activation, CD4^+ T cell APC complexes were disrupted with 5 mM EDTA/PBS for 10 minutes at 25° C., washed twice in PBS, and purified with magnetic beads using the MACS CD4^+ T cell isolation kit as described elsewhere herein. Purity of activated DO11.10 CD4^+ T cells exceeded 96%. As described elsewhere herein, the remainder of the contaminants by FACS analysis were CD8^+ T cells, with APCs at <0.1% by RT-PCR.
Following activation, purified CD4^+ T cells were washed twice in PBS and replated in culture medium at 10^6/ml. Cultures were left untreated or treated with either TLR ligands and/or inhibitors for indicated times and concentrations. Following incubation, CD4^+ T cells were washed twice in PBS/2% FBS and stained with CD4-allophycocyanin monoclonal antibody and 7-aminoactinomycin D (7-AAD; BD PharMingen) or annexin (BD PharMingen) and survival was assessed by exclusion of either of these two stains. For absolute live cell counts 50,000 CD45.1^+ splenocytes labeled with anti-CD45.1-PE monoclonal antibody (A20; BD PharMingen) were also added to stained CD4^+ T cell sample FACS tubes just before FACS analysis. Live CD4^+ T cell counts were calculated by taking the ratio of the number of CD4^+CD45.1^−7-ADD^− events collected to the number CD45.1^+ events collected and multiplying by 50,000. Proliferation was measured by CFSE dye dilution as previously described (Wells et al., 1997 J. Clin. Invest. 100:3173).
TLR ligands directly promote the survival of several cell types including neutrophils, DC, and B cells (Lundqvist et al., 2002, Cancer Immunol. Immunother. 51:139; Sabroe et al., 2003, J. Immunol. 170:5268; Grillot et al., 1996, J. Exp. Med. 183:381; Grillot et al., 1996, J. Exp. Med. 183:381). Since it was observed that activated CD4^+ T cells also express TLRs and signal in response to TLR ligands, the next set of experiments were designed to assess whether TLR ligands could directly enhance survival of these cells. DO11.10 CD4^+ T cells, that encode a transgenic TCR specific for a peptide derived from chicken OVA (pOVA), were activated with pOVA-pulsed APCs for 16 hours ex vivo, purified by magnetic beads to remove all non-CD4^+ T cells, and replated in unsupplemented culture medium in the absence or presence of TLR ligands. Survival was then assessed 72 hours following activation (FIG. 3A). Poly(I:C) or CpG DNA induced increases of activated CD4^+ T cell survival from 38% to 71 and 73%, respectively.

[3] = tested on: Foxp3+GFP+ and Foxp3-GFP- T cells; test: Foxp3 expression (GFP reporter) and IL-6 production in Foxp3+ and Foxp3- T cells under stimulation; settings: stimulation with anti-CD3 and anti-CD28 antibodies and TGF-b, with additions (FIG. 22)
Method: In order to study the effect of stimulation conditions on Foxp3 expression, T cells were from mice having a reporter construct introduced into the FOXP3 locus (Betteli et al., 2006, Nature 441:235-238) by sorting cells based on the GFP-reporter construct. The reporter construct expresses both Fox3p and the fluorescent protein GFP. T cells that are Foxp3^− (i.e. GFP^−) and T cells that are Foxp3^+ (i.e. GFP^+) were isolated (FIG. 21A). Foxp3 expression was then assessed under different stimulation conditions, […]

Row | Compound | effect on poly(I:C)- or CpG DNA-enhanced activated CD4+ T cell survival (activated CD4+ T cells [1]) | Foxp3 expression in Foxp3-GFP- cells (non-regulatory T cells) [3] | further results
1 | C[S+]([O-])c1ccc(-c2nc(-c3ccncc3)c(-c3ccc(F)cc3)[nH]2)cc1 (stereo not shown) [SB203580] | neither U0126 or SB203580 treatment decreased | – | –
2 | poly(C) | – | – | effect on activated CD4+ T cell survival (dose response) (activated CD4+ T cells [2]; FIG. 3B, purified activated CD4+ T cells): no significant effect
3 | IL-6: cytokine added to the stimulation conditions | – | blocked the induction of Foxp3 | –
4 | TGF-b | – | promoted Foxp3 expression | –
5 | N#CC(=C(/N)Sc1ccccc1N)/C(C#N)=C(\N)Sc1ccccc1N [U0126] | neither U0126 or SB203580 treatment decreased | – | overall survival rates of TLR-treated activated CD4+ T cells (activated CD4+ T cells [1]; concentration of 10 μM): small increase
6 | IFN-α | – | – | activated CD4+ T cell survival (activated CD4+ T cells [2]; 72 hours following activation, DO11.10 CD4+ T cells activated with pOVA-pulsed APCs, purified, untreated 38% (FIG. 3A)): 67%
